Reference: article PMC11009625, “Antibiotic class with potent in vivo activity targeting lipopolysaccharide synthesis in Gram-negative bacteria” (Proceedings of the National Academy of Sciences of the …, 2024)
In brackets after ≈: the same amount, converted by molar mass.

How the values were obtained:
Type in all cases: cell-based
[1] = test system: K. pneumoniae (EN124); test: MIC of K. pneumoniae strain used in the in vivo efficacy studies; details: Klebsiella pneumoniae
Procedure: (§1) Minimum inhibitory concentration (MIC) values were determined according to the Clinical Laboratory Standards Institute guidelines. Frequency of resistance was determined by plating ~5 × 10^8 bacterial cells on agar-solidified media plates containing test compound at concentrations corresponding to four times the measured solid-media MIC of the strains. Colonies were counted after 24 h, restreaked onto media containing the same concentration of compound, and the MIC remeasured against the assayed compound. Genomic DNA from isolated clones was sequenced by paired-end sequencing on an Illumina MiSeq device. Complete experimental details available in SI Appendix.
(§2) Lantmännen) and water. […]
(§3) Safety testing in mice. […] Mice were extensively observed and toxicity signs were scored after 0-2, 5, […]
(§4) Plasma sample analysis by UPLC/MS/MS. Concentrations of EBL-3599 and EBL-3647 in mouse blood plasma were measured by liquid chromatography tandem mass spectrometry (LC/MS/MS) in positive electrospray ionization (ESI+) in multi reaction monitoring (MRM) mode. […]
(§5) A sample volume of 20 μL was transferred into a plastic tube and mixed with 300μL acetonitrile/methanol mixture (3:1, v/v) to precipitate proteins. […] Bioanalysis of samples from each mouse were measured in duplicate and the results averaged. […]

[2] = test system: E. coli (EN122); test: MIC of E. coli strain used in the in vivo efficacy studies; details: Escherichia coli
Procedure: as §1, §2, §3, §4, §5

[3] = test system: efflux-defective E. coli; test: MIC in phenotypic screen, tolC-inactivated E. coli; details: Escherichia coli, read-out: MIC against efflux-defective E. coli
Text: In a search for new drug targets and starting points for antibiotic discovery, we initiated a series of phenotypic screens, based on publicly available chemical libraries and information gathered from the literature, focusing on compounds for which there was some evidence of Gram-negative antibacterial activity. In our initial screens, we evaluated activity against tolC-inactivated mutants of E. coli. The TolC protein is the outer membrane channel protein that is required for activity of several of the most important efflux pumps in E. coli, and inactivation of TolC essentially abolishes efflux pump activity ([27]). […] We successfully isolated resistant mutants against this compound. […] We resynthesized the AZ1 compound and confirmed the involvement of LpxH by WGS of selected resistant clones (SI Appendix, Table S1) ([24]–[26]). Both our own, and previously published mutations, map to the lipid X (enzymatic reaction product) binding site of LpxH (SI Appendix, Table S1 and Fig. S1A) ([23]). […]
Minimum inhibitory concentration (MIC) values were determined according to the Clinical Laboratory Standards Institute guidelines. Frequency of resistance was determined by plating ~5 × 10^8 bacterial cells on agar-solidified media plates containing test compound at concentrations corresponding to four times the measured solid-media MIC of the strains. […]

[4] = test system: efflux-defective E. coli; test: Frequency of resistance, efflux-defective E. coli; details: not told
Procedure: as §1, with “Appendix. […]” for “Appendix.”
Minimum inhibitory concentration (MIC) determination. […] Appropriate inoculation suspension density was assessed using a Sensititre Nephelometer with a Sensititre 0.5 […]
Frequency of Resistance. Frequency of resistance was assessed by spread plating between […] cfu of a freshly-grown culture of the strain of interest on plates containing a concentration of compound corresponding to 4 times the MIC of the strain (as determined by agar-dilution MIC). […] The frequency of resistance was determined by dividing the number of colonies obtained on the selective plates after 24 hours of growth by the calculated total population plated. […]

Cc1cc(C#N)nc(N2CCN(S(=O)(=O)c3ccc(NC(=O)c4cc(CN5CC(CN)C5)ccc4N(C)S(C)(=O)=O)cc3)CC2)n1 [EBL-3647]
MIC [1]: 4 µg/mL | MIC [2]: 4 µg/mL

CN(c1ccccc1C(=O)Nc1ccc(S(=O)(=O)N2CCCCC2)cc1)S(C)(=O)=O [JEDI-852]
MIC [3]: 4 to 8 µg/mL (≈ 8.86 to 17.7 µM)

CN(c1ccccc1C(=O)Nc1ccc(S(=O)(=O)N2CCN(c3cccc(C(F)(F)F)c3)CC2)cc1)S(C)(=O)=O [JEDI-1444]
Frequency of resistance in efflux-defective E. coli [4]: low frequency of resistance
